Publication PMC4629130, “Human Odorant Reception in the Common Bed Bug, Cimex lectularius” (Scientific Reports, 2015)

Tests used:
ClOr2/Orco = biological target: T1, ClOr2/Orco (Cimex lectularius, UniProt A0A8I6SBL2); assay: two-electrode voltage clamp, Xenopus oocytes; assay type: cell-based
T1 construct: entire coding regions of ClOr2 and ClOrco in pT7Ts, cRNAs co-injected into Xenopus oocytes; heteromeric receptor channel; clusters with Rhodnius RpOr105; with Odorant receptor coreceptor

ClOr1/Orco = biological target: T2, ClOr1/Orco (Cimex lectularius, UniProt A0A8I6SE58); assay: two-electrode voltage clamp, Xenopus oocytes; assay type: cell-based
T2 construct: entire coding regions of ClOr1 and ClOrco in pT7Ts, cRNAs co-injected into Xenopus oocytes; heteromeric receptor channel; with Odorant receptor coreceptor
T2 sequence (A0A8I6SE58 1-379): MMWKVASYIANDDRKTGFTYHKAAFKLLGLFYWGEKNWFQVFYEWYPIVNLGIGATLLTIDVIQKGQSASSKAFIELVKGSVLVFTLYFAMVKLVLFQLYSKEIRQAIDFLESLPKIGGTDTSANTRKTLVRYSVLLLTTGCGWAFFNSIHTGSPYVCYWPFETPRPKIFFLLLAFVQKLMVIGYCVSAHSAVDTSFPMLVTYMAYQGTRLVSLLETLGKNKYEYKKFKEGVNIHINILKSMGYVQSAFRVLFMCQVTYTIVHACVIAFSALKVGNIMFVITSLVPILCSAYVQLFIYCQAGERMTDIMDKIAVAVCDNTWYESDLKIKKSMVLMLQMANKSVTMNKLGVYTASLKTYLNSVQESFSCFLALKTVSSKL
T2 sequence (A0A0A0U7J0 1-451 partner): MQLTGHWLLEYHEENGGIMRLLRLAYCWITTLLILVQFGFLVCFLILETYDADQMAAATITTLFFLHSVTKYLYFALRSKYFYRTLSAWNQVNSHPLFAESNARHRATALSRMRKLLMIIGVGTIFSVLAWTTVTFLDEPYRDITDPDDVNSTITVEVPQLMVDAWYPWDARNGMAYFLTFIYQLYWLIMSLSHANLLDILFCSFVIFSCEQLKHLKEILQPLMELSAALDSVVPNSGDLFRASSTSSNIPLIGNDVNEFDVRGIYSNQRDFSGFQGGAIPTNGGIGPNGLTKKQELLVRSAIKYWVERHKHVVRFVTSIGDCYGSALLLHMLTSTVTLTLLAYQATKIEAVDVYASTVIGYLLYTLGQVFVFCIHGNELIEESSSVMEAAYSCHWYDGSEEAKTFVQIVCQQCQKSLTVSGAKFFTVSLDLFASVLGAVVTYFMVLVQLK

T1 sequence (A0A8I6SBL2 1-382): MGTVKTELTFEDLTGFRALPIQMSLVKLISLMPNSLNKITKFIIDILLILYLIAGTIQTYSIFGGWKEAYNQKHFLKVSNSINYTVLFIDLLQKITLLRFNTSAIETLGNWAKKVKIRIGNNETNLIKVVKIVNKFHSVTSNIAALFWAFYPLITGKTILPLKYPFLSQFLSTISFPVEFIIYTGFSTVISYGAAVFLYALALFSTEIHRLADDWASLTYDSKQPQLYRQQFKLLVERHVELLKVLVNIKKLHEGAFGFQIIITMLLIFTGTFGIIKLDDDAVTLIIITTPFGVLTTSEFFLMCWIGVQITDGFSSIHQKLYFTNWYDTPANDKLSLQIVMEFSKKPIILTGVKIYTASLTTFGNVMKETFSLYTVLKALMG
T1 sequence (A0A0A0U7J0 1-451 partner): as the sequence (A0A0A0U7J0 1-451 partner) above

With `CCCCCCCCCC=O` [decanal] the EC50 (ClOr2/Orco) was 6.42 µM.
Compound `CCCCCCCCC=O` [nonanal] has an EC50 (ClOr1/Orco) of 519 nM.
`CCCCCCCC=O` [octanal] gave an EC50 (ClOr1/Orco) of 3400 nM.
